This note sets out measurements from PMC8707212, “Immunosuppressive Sesquiterpenoids from the Edible Mushroom Craterellus odoratus” (Journal of Fungi, 2021).

Series [1] can be described thus: Cytotoxicity on mouse spleen cells (CCK-8 assay). It is filed as cell-based, BALB/c mice. To be noted: female, fresh mouse spleen cells (splenic lymphocytes), BALB/c mouse spleen cells. As to the method: (§1) Female BALB/c mice were sacrificed by cervical dislocation, and their spleens were aseptically removed. After cell debris, mononuclear cell suspensions were prepared, and clumps were removed. Erythrocytes were depleted with ammonium chloride buffer solution. Lymphocytes were washed and resuspended in RPMI 1640 medium supplemented with 10% FBS, penicillin (100 U/mL), and streptomycin ([…]).
We used the Cell Counting Kit-8 (CCK-8) assay to test cytotoxicity. In brief, fresh spleen cells were obtained from female BALB/c mice (18–20 g). Spleen cells (1 × 10^6 cells) were seeded in triplicate in 96-well flat plates and cultured at 37 °C for 48 h, with or without compounds of various concentrations, in a humidified and 5% CO2-containing incubator. A certain amount of CCK-8 was added to each well during the last 8–10 h of culture. At the end of the culture, we use a microplate reader (Bio-Rad 650) to measure the OD value at 450 nm. […] Only the OD value of culture medium is used as background. The cytotoxicity of compounds was expressed as the concentration of the compounds that reduces cell viability to 50% (CC50).
(In general: Formazan colour is commonly taken as a measure of viable cells.)

For another series, the system named is B lymphocyte cells. Put plainly: LPS-induced B-cell proliferation ([3H]-thymidine uptake). In kind it is cell-based, BALB/c mice. To be noted: Mus musculus, spleen cells stimulated with 10 µg/mL LPS. As to the method: as §1
As mentioned above, fresh spleen cells were obtained from female BALB/c mice (18–20 g). Similarly, the 5 × 10^5 spleen cells were cultured at the same conditions. The cultures, with or without various concentrations of compounds, were stimulated with 5 µg/mL of concanavalin A (ConA) to induce the T cells’ proliferative response or 10 µg/mL of lipopolysaccharide (LPS) to induce B cells’ proliferative response. Proliferation was assessed in terms of uptake of [^3H]-thymidine during 8 h of pulsing with 25 µL/well of [^3H]-thymidine, then cells will be harvested onto glass fiber filters. A Beta scintillation counter was used to count the incorporated radioactivity. Cells treated without any stimuli were used as a negative control. The immunosuppressive activity was expressed as the concentration of the compound that inhibited T or B cell proliferation to 50% (IC50) of the control value. Both the cytotoxicity and proliferation assessment were repeated twice.

The next series has as its system T lymphocyte cells. Kind of series: ConA-induced T-cell proliferation ([3H]-thymidine uptake). In kind it is cell-based, BALB/c mice. To be noted: Mus musculus, spleen cells stimulated with 5 µg/mL ConA, read-out: Con A-Induced T-Cell Proliferation IC50. As to the method:
as §1

For orientation: CC50 means the concentration that lowers cell viability or growth by half. In turn, `C=C1C2CN(CC(=O)O)CC3C2C(C(C)C)CCC13C` (stereo not shown) [Compound 19, Craterodoratin S] registered a CC50 at 48 h in series [1] greater than 40 µM. The compound further returned an IC50 in the series with B lymphocyte cells of 22.7 ± 1.67 µM.
`CC(=CC(O)CC12COC3(C)CCC1CC32)C(=O)O` (stereo not shown) [Compound 20, massarinolin B]: the CC50 at 48 h in series [1] is greater than 40 µM. Also, the IC50 in the series on T lymphocyte cells came to 0.98 ± 0.01 µM; in the series on B lymphocyte cells, 0.67 ± 0.004 µM.
Regarding `CC(=CC1CC23C4CCC(C)(OC2O1)C3C4)C(=O)O` (stereo not shown) [Compound 23, donacinoic acid A], the CC50 at 48 h in series [1] is greater than 40 µM. The same compound came in with an IC50 in the series with B lymphocyte cells of 13.2 ± 0.97 µM.
On to `C=C1CCC2CC1C2(COC(C)=O)CC(O)C=C(C)C(=O)O` (stereo not shown) [Compound 17, Craterodoratin Q], for which the cytotoxic concentration (CC50) at 48 h in series [1] is greater than 40 µM. Further, in the series on T lymphocyte cells, the IC50 turned out to be 31.5 ± 1.79 µM.
With `C=C1CCC2(O)CC1C2(C)CCC=C(C)C(=O)O` (stereo not shown) [Compound 15, Craterodoratin O], the half-maximal cytotoxic concentration (CC50) at 48 h in series [1] was greater than 40 µM. This compound returned an IC50 with B lymphocyte cells of 17.1 ± 1.14 µM.
Take `CC(=CCCC1(C)C2CCC(CO)C1(O)C2)C(=O)O` (stereo not shown) [Compound 14, Craterodoratin N]: the CC50 at 48 h in series [1] is greater than 40 µM. Also, in the series with B lymphocyte cells, the IC50 was 13.3 ± 1.29 µM.
In the same order, the values of `CC(=CC(=O)CC12C(=O)OC3(C)CCC1CC32)C(=O)O` (stereo not shown) [Compound 12, Craterodoratin L] are greater than 40 µM and 13.7 ± 0.65 µM.
The melting point is the temperature, or range, at which the solid turns liquid. Take `CC(=CCCC1(C)C2CCC(CO)(C2)C1O)C(=O)O` (stereo not shown) [Compound 3, Craterodoratin C]: the melting point lay in the range of 180.7 to 182.4 °C. In addition, the CC50 at 48 h in series [1] was greater than 40 µM. This compound had an IC50 with B lymphocyte cells of 12.6 ± 1.14 µM.
For the compound `CC(=CC(O)CC12COC3(CO)CCC1CC32)C(=O)O` (stereo not shown) [Compound 10, Craterodoratin J], the CC50 at 48 h in series [1] is greater than 40 µM. Moreover, the IC50 with B lymphocyte cells is 19.4 ± 0.48 µM.
Regarding `CC(=CCCC1(C)C2CCC(CO)C1C2)C(=O)O` (stereo not shown) [Compound 13, Craterodoratin M], in series [1], the CC50 at 48 h is greater than 40 µM. The same compound registered an IC50 in the series on B lymphocyte cells of 15.4 ± 1.03 µM.
